Measured values from patent US12042520B2 (SOLUVEG SA, priority 2015, dated 2024).

Tests used:
[1] = Curcumin plasma concentration after intravenous administration in the pig (for comparison); type: in vivo; details: 0.60 grams for 23 kg
[2] = piperine used with curcumin; cited from earlier work

Row | Time for which the plasma concentration remains at a constant level [1] [h] | Time of plasma concentration peak [1] [h] | concentration at 0 hours ([1]; plasma, 0.6 grams for 23 kg of live weight, 0 hours) [ng/mL] | concentration at 3 hours ([1]; plasma, 0.6 grams for 23 kg of live weight, 3 hours) [ng/mL] | concentration at 6 hours ([1]; plasma, 0.6 grams for 23 kg of live weight, 6 hours) [ng/mL] | concentration at 9 hours ([1]; plasma, 0.6 grams for 23 kg of live weight, 9 hours) [ng/mL] | concentration at 24 hours ([1]; plasma, 0.6 grams for 23 kg of live weight, 24 hours) [ng/mL] | concentration at 48 hours ([1]; plasma, 0.6 grams for 23 kg of live weight, 48 hours) [ng/mL] | concentration at 72 hours ([1]; plasma, 0.6 grams for 23 kg of live weight, 72 hours) [ng/mL] | Compound | Effect in the intestine (in words) [2]
1 | 10 | 24 | 0 | 537 | 557 | 713 | 724 | 537 | 385 | COc1cc(/C=C/C(=O)CC(=O)/C=C/c2ccc(O)c(OC)c2)ccc1O [Curcumin, curcumin] | 
2 |  |  |  |  |  |  |  |  |  | O=C(/C=C/C=C/c1ccc2c(c1)OCO2)N1CCCCC1 [piperine] | irritating effect in the intestine
